In US20250366474A1, “USE OF 4,5-DIMETHYLTHIAZOLE IN PROMOTING PLANT GROWTH” (HUAZHONG AGRICULTURAL UNIVERSITY, priority 2024, published 2025):

System: hydroponic rice seedlings
Assay: Addition of 4,5-dimethylthiazole to hydroponic rice: growth, agronomic traits and nitrogen accumulation
Format: in vivo, indica (Heliangyou 332) and japonica (Nipponbare)
Conditions: for Dry Matter Mass of Rice, Root System / Dry Matter Mass of Rice, Shoot Part / Dry Matter Mass of Rice, Total / Leaf Area / Leaf Length / Leaf Width / Plant Height / Total Root Count: 25 days of cultivation
Experimental: Five addition concentrations of 4,5-dimethylthiazole (CAS No. 3581-91-7, see FIG. 1 for structural formula) were set, being 0, 5, 10, 20 and 50 mg/L, respectively, and a solvent was a rice nutrient solution. Two rice varieties were indica (Heliangyou 332) and japonica (Nipponbare), respectively. The rice was subjected to normal seed soaking, sowing and cultivation. When grown to one leaf and one tiller, rice seedlings were cultivated with mixed solution. Samples were collected after 25 days of cultivation. 30 plants were sampled from each treatment, where 15 plants were divided into two parts of stems and leaves, and root system, which were dried and weighed, and the other 15 plants were measured for agronomic traits.

Structure (SMILES): Cc1ncsc1C [4,5-dimethylthiazole]
- Dry Matter Mass of Rice, Root System (5 mg/L): 3.1 mg/plant
- Dry Matter Mass of Rice, Shoot Part (5 mg/L): 17.0 mg/plant
- Dry Matter Mass of Rice, Total (5 mg/L): 20.1 mg/plant
- Leaf Area (5 mg/L): 3.39 cm^2
- Leaf Length (5 mg/L): 10.73 cm
- Leaf Width (5 mg/L): 0.38 cm
- Plant Height (5 mg/L): 16.73 cm
- Total Root Count (5 mg/L): 8.0 count/plant
- Dry Matter Mass of Rice, Root System (10 mg/L): 4.0 mg/plant
- Dry Matter Mass of Rice, Shoot Part (10 mg/L): 24.3 mg/plant
- Dry Matter Mass of Rice, Total (10 mg/L): 28.3 mg/plant
- Leaf Area (10 mg/L): 3.03 cm^2
- Leaf Length (10 mg/L): 10.88 cm
- Leaf Width (10 mg/L): 0.34 cm
- Plant Height (10 mg/L): 16.97 cm
- Total Root Count (10 mg/L): 8.0 count/plant
- Dry Matter Mass of Rice, Root System (20 mg/L): 3.8 mg/plant
- Dry Matter Mass of Rice, Shoot Part (20 mg/L): 22.0 mg/plant
- Dry Matter Mass of Rice, Total (20 mg/L): 25.8 mg/plant
- Leaf Area (20 mg/L): 3.16 cm^2
- Leaf Length (20 mg/L): 11.08 cm
- Leaf Width (20 mg/L): 0.34 cm
- Plant Height (20 mg/L): 16.13 cm
- Total Root Count (20 mg/L): 8.7 count/plant
- Dry Matter Mass of Rice, Root System (50 mg/L): 3.0 mg/plant
- Dry Matter Mass of Rice, Shoot Part (50 mg/L): 19.7 mg/plant
- Dry Matter Mass of Rice, Total (50 mg/L): 22.7 mg/plant
- Leaf Area (50 mg/L): 3.01 cm^2
- Leaf Length (50 mg/L): 9.23 cm
- Leaf Width (50 mg/L): 0.39 cm
- Plant Height (50 mg/L): 14.15 cm
- Total Root Count (50 mg/L): 9.3 count/plant
- increase of leaf area (5-50 mg/L, average): 59.6%
- increase of leaf length (5-50 mg/L, average): 33.9%
- increase of leaf width (5-50 mg/L, average): 19.6%
- increase of rice plant height (5-50 mg/L, average): 31.5%
- increase of total root count (5-50 mg/L, average): 47.8%
